Measurements reported in the supplement of paper PMC11208160.

test: recombinant barcode read abundance after kanamycin selection (control-corrected) (log10(CPM+1)); higher = more efficient recombination; sequences stand for … in AGTGCAGAGAAAATCGGCCAGTTTTCTCTGCCTGCAGTCCGCATGCCGT…AGATTTATGCAGCGGACTGCCTTTCTCCCAAAGTGATAAACCGGACAGTATCATGGACCGGTTTTCCCGGTAATCCGTATTTGCAAGGTTGGTTTCACT; site = the 11-nt target
How it was run: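 In E. coli, a pooled library matched targets to IS621 bridge RNA target-binding loops and was introduced alongside a donor plasmid. Cells went onto chloramphenicol/ampicillin/kanamycin with 0.1 mM IPTG or onto chloramphenicol/ampicillin LB agar as control, in duplicate. Recombination efficiency, from recombinant-junction barcodes as counts per million, is averaged and control-corrected. It is reported as log10(CPM+1).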
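Note: IS621 recombinase and bridge RNA in Escherichia coli cells.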

Row | Sequence | recombinant barcode read abundance (log10)
1 | TCTCATTCTTGGGTTCTAACCTGTTGCGT (site TCTCATTCTAC) | 0.937
2 | TCTCATTCTTGGGTTCTAACCTGTTGCGT (site TCTGATTCTAC) | 0.163
3 | TCTCATTCTTGGGTTCTAACCTGTTGCGT (site TCTTATTCTAC) | 0.0829
4 | TCTCCGCCTTGGGTTCTAACCTGTTGCCT (site TCTCAGCCTAG) | 0.139
5 | TCTCCGCCTTGGGTTCTAACCTGTTGCCT (site TCTCCGCCTAG) | 0.431
6 | TCTCCGCCTTGGGTTCTAACCTGTTGCCT (site TCTCGGCCTAG) | 0.0901
7 | TCTCCGCCTTGGGTTCTAACCTGTTGCCT (site TCTCTGCCTAG) | 0.0964
8 | TCTCGATCTTGGGTTCTAACCTGTTGCAT (site CCTCGATCTAT) | 0.0525
9 | TCTCGATCTTGGGTTCTAACCTGTTGCAT (site TCTCGATCTAT) | 0.273
10 | TCTCGTCCTTGGGTTCTAACCTGTTGCTA (site AGCAACACTCT) | 0.226
11 | TCTCGTCCTTGGGTTCTAACCTGTTGCTA (site TCTCGTCCTTA) | 0.0623
12 | TCTCTGCCTTGGGTTCTAACCTGTTGCCT (site TCTCAGCCTAG) | 0.277
13 | TCTCTGCCTTGGGTTCTAACCTGTTGCCT (site TCTCCGCCTAG) | 1.15
14 | TCTCTGCCTTGGGTTCTAACCTGTTGCCT (site TCTCGGCCTAG) | 0.108
15 | TCTCTGCCTTGGGTTCTAACCTGTTGCCT (site TCTCTGCCTAG) | 0.208
16 | TCTGAAACTTGGGTTCTAACCTGTTGCTT (site GACACCTCTCG) | 0.0724
17 | TCTGAAACTTGGGTTCTAACCTGTTGCTT (site TCTGAAACTAA) | 0.314
18 | TCTGAGGCTTGGGTTCTAACCTGTTGCTG (site TCAGAGGCTCA) | 0.263
19 | TCTGAGGCTTGGGTTCTAACCTGTTGCTG (site TCCGAGGCTCA) | 0.129
20 | TCTGAGGCTTGGGTTCTAACCTGTTGCTG (site TCGGAGGCTCA) | 0.0364
21 | TCTGAGGCTTGGGTTCTAACCTGTTGCTG (site TCTGAGGCTCA) | 0.455
22 | TCTGCGACTTGGGTTCTAACCTGTTGCCT (site TCAGCGACTAG) | 0.0737

Row | Sequence | recombinant barcode read abundance (log10)
23 | TCTGCGACTTGGGTTCTAACCTGTTGCCT (site TCCGCGACTAG) | 0.455
24 | TCTGCGACTTGGGTTCTAACCTGTTGCCT (site TCGGCGACTAG) | 0.114
25 | TCTGCGACTTGGGTTCTAACCTGTTGCCT (site TCTGCGACTAG) | 0.265
26 | TCTGGGGCTTGGGTTCTAACCTGTTGCCT (site ACTGGGGCTTG) | 0.0588
27 | TCTGGGGCTTGGGTTCTAACCTGTTGCCT (site TCTGGGGCTAG) | 0.0357
28 | TCTGGGGCTTGGGTTCTAACCTGTTGCGG (site TCTGGGGCTCA) | 0.376
29 | TCTGGGGCTTGGGTTCTAACCTGTTGCGG (site TCTGGGGCTCC) | 2.61
30 | TCTGGGGCTTGGGTTCTAACCTGTTGCGG (site TCTGGGGCTCG) | 0.271
31 | TCTGGGGCTTGGGTTCTAACCTGTTGCGG (site TCTGGGGCTCT) | 2.22
32 | TCTGTAACTTGGGTTCTAACCTGTTGCCT (site CAATCCTCTTA) | 0.183
33 | TCTGTAACTTGGGTTCTAACCTGTTGCCT (site TCTGTAACTAG) | 0.421
34 | TCTGTGTCTTGGGTTCTAACCTGTTGCTA (site ATATCAACTCG) | 0.0225
35 | TCTGTGTCTTGGGTTCTAACCTGTTGCTA (site TCTGTGTCTTA) | 1.46
36 | TCTTATACTTGGGTTCTAACCTGTTGCAT (site TCTTATACTAC) | 0.0107
37 | TCTTATACTTGGGTTCTAACCTGTTGCAT (site TCTTATACTAT) | 0.186
38 | TCTTGACCTTGGGTTCTAACCTGTTGCTT (site GGCACCACTCG) | 0.063
39 | TCTTGACCTTGGGTTCTAACCTGTTGCTT (site TCTTGACCTAA) | 0.242
40 | TCTTGCTCTTGGGTTCTAACCTGTTGCCT (site AGAACTCCTCA) | 0.102
41 | TCTTGCTCTTGGGTTCTAACCTGTTGCCT (site TCTTGCTCTAG) | 0.574
42 | TCTTGGACTTGGGTTCTAACCTGTTGCTT (site TCTTGGACTAA) | 0.421
43 | TCTTGGACTTGGGTTCTAACCTGTTGCTT (site TCTTGGACTCA) | 0.145
